Values of other authors, collected in US20010043957A1, “Lypolytic composition” (priority 2000, published 2001).

What was measured:
[1] = group of animals
[2] = per day, most healthy people, caffeine and related methylxanthines

Cn1c(=O)c2c(ncn2C)n(C)c1=O [caffeine]
loss in body weight [1]: not significant loss in body weight
amount safely consumed without adverse reactions [2]: up to 200 mg

CN[C@@H](C)[C@H](O)c1ccccc1 [ephedrine]
loss in body fat [1]: 42%
loss in body weight [1]: 14%
